In patent US20250049770A1, “Phosphodiesterase 4 Inhibitor Decreases Thrombosis in Simulated ECMO Model” (Board of Regents, The University of Texas System, priority 2023, published 2025):

Legend:
human whole blood [1] = assay: Circuit patency / clot formation in simulated neonatal roller pump ECMO circuit (Trial 1); conditions: for circuits with sustained patency after six hours: heparin 0.5 U/mL with or without roflumilast, 3/4 vs 2/7 circuits
Excerpt: (§1) Whole blood was collected from healthy adults under an U.S. Army Institute of Surgical Research approved standard operating procedure. A simulated neonatal roller pump with a KIDS D100 oxygenator circulated human whole blood at a low or nominal flow rate ([…] and 0.5 L/min) for six hours or until clot formation caused device failure. Samples were collected hourly from the ECMO model that received heparin alone or heparin plus roflumilast (a PDE4 inhibitor). Expression of pro-thrombotic proteins on leukocytes and extracellular vesicles (EV) were measured with high-resolution flow cytometry. Coagulation factor activity, platelet counts, time to thrombin generation, peak thrombin, and endogenous thrombin potential were quantified.
(§2) Whole blood was collected from healthy adult humans into a blood transfer bag containing 0.5 U/mL of heparin with or without roflumilast at 0.01 microgram per mL, under an approved protocol by the U.S. Army Institute of Surgical Research. The blood was then circulated through a roller pump circuit for six hours or until clot formation occurred that prevented forward flow through the circuit. As a control, an aliquot of static blood was removed after priming the circuit and maintained in a similar test environment without circuitry.
(§3) Samples were collected hourly from the roller pump circuit, which circulated blood treated with either heparin only or heparin plus roflumilast, at nominal flow rates (0.5 L/min). The expression of pro-thrombotic phospholipids and proteins on platelets, leukocytes, and extracellular vesicles (EV) was measured using high-resolution flow cytometry. Additionally, thromboelastography (TEG) and coagulation indices were used to assess coagulopathy, and a calibrated automated thrombogram was employed to measure differences in whole blood TEG between the roflumilast-treated and heparin-only samples.

thrombin generation = assay: Thrombin generation (calibrated automated thrombogram) in roller pump ECMO circuit (Trial 1); design: species or system human; conditions: for time to thrombin generation: at the 3-hour time point, p<0.04; for time to thrombin generation / peak thrombin generation: heparin with or without roflumilast; for peak thrombin generation: p<0.02
Excerpt: as §1, §2, §3

human whole blood [2] = assay: Clot formation (d-dimer) and plasminogen activating inhibitor in simulated Cardiohelp HTS in vitro ECMO system (Trial 2); conditions: after five hours of circulation, low flow rate (1 L/min); for clot formation as measured by d-dimer: heparin with or without roflumilast, p<0.04
Excerpt: (§4) Whole blood was collected from healthy adults under an US Army Institution of Surgeryal Review Board approved protocol. A simulated Cardiohelp HTS in vitro ECMO system with a double-lumen veno-venous catheter circulated human whole blood at a low flow rate (1 L/min) for six hours or until clot formation caused device failure. Samples were collected hourly from the ECMO model that received heparin alone or heparin plus roflumilast (a PDE4 inhibitor). Expression of pro-thrombotic proteins on leukocytes and extracellular vesicles (EV) were measured with high-resolution flow cytometry. Coagulation factor activity, platelet counts, time to thrombin generation, peak thrombin, and endogenous thrombin potential were quantified.

[3] = test system: platelets, leukocytes, and extracellular vesicles (EV); assay: High-resolution flow cytometry of pro-thrombotic proteins in roller pump ECMO circuit (Trial 1); format: cell-based, human
Excerpt: (§5) Whole blood was collected from healthy adults under an U.S. Army Institute of Surgical Research approved standard operating procedure. A simulated neonatal roller pump with a KIDS D100 oxygenator circulated human whole blood at a low or nominal flow rate ([…] and 0.5 L/min) for six hours or until clot formation caused device failure. Samples were collected hourly from the ECMO model that received heparin alone or heparin plus roflumilast (a PDE4 inhibitor). Expression of pro-thrombotic proteins on leukocytes and extracellular vesicles (EV) were measured with high-resolution flow cytometry. Coagulation factor activity, platelet counts, time to thrombin generation, peak thrombin, and endogenous thrombin potential were quantified. Whole blood was collected from healthy adult humans into a blood transfer bag containing 0.5 U/mL of heparin with or without roflumilast at 0.01 microgram per mL, under an approved protocol by the U.S. Army Institute of Surgical Research. The blood was then circulated through a roller pump circuit for six hours or until clot formation occurred that prevented forward flow through the circuit. As a control, an aliquot of static blood was removed after priming the circuit and maintained in a similar test environment without circuitry. Samples were collected hourly from the roller pump circuit, which circulated blood treated with either heparin only or heparin plus roflumilast, at nominal flow rates (0.5 L/min). The expression of pro-thrombotic phospholipids and proteins on platelets, leukocytes, and extracellular vesicles (EV) was measured using high-resolution flow cytometry. Additionally, thromboelastography (TEG) and coagulation indices were used to assess coagulopathy, and a calibrated automated thrombogram was employed to measure differences in whole blood TEG between the roflumilast-treated and heparin-only samples.

leukocytes = assay: Leukocyte activation measured by TNF-alpha in roller pump ECMO circuit (Trial 1); format: cell-based, human; conditions: nominal flow rate (0.5 L/min), six hours; heparin with Roflumilast
Excerpt: as §5, with “circuitry.” for “circuitry. Samples were collected hourly from the roller pump circuit, which circulated blood treated with either heparin only or heparin plus roflumilast, at nominal flow rates (0.5 L/min). The expression of pro-thrombotic phospholipids and proteins on platelets, leukocytes, and extracellular vesicles (EV) was measured using high-resolution flow cytometry. Additionally, thromboelastography (TEG) and coagulation indices were used to assess coagulopathy, and a calibrated automated thrombogram was employed to measure differences in whole blood TEG between the roflumilast-treated and heparin-only samples.”

human whole blood [4] = assay: Thromboinflammation markers in simulated Cardiohelp HTS in vitro ECMO system (Trial 2); format: cell-based; conditions: roflumilast added to heparin vs heparin alone; preliminary results
Excerpt: as §4

[5] = test system: neutrophils and monocytes; conditions: Totani et al (J. Thromb Haemost. 2016); cited from earlier work
monocyte = conditions: cell culture experiments; cited from earlier work
[6] = in vitro ECMO experiments with roflumilast

Row | Compound | circuits with sustained patency after six hours (human whole blood [1]) [%] | time to thrombin generation (thrombin generation) [min] | peak thrombin generation (thrombin generation) [nm] | clot formation as measured by d-dimer (human whole blood [2]) [µg/mL] | clot formation (in vitro ECMO experiments, summary) (human whole blood [1]; [6]) | Monocytes expression of tissue factor ([3]; low flow (0.3 L/min) vs low flow with Roflumilast, p<0.05) | P-selection expression ([3]; low flow (0.3 L/min) with Roflumilast vs nominal and low flow, over six hours, p<0.05) | extracellular leukocytes expressing tissue factor ([3]; roller pump circuit, heparin plus roflumilast) | thrombin generation (in vitro ECMO experiments, summary) (thrombin generation; [6]) | Peak thrombin (comparison in words) (thrombin generation; nominal flow rate (0.5 L/min), six hours, heparin only vs leukodepleted or roflumilast and heparin, p<0.05) | lag time (thrombin generation) (thrombin generation; over six hours of circulation, heparin vs heparin with Roflumilast) | leukocyte activation as measured by TNF-alpha (leukocytes) | increase in plasminogen activating inhibitor levels, more than heparin alone (human whole blood [2]; roflumilast added to heparin, p<0.03) [fold] | monocyte activation (thromboinflammation) (human whole blood [4]) | myeloperoxidase (thromboinflammation) (human whole blood [4]) | p-selectin (thromboinflammation) (human whole blood [4]) | pro-thrombotic functions of neutrophils and monocytes [5] | monocyte activation of tissue factor (monocyte)
1 | heparin | 28 | 6.8 | 207 | 0.49 ± 0.08 | – | – | – | – | – | – | – | – | – | – | – | – | – | –
2 | O=C(Nc1c(Cl)cncc1Cl)c1ccc(OC(F)F)c(OCC2CC2)c1 [roflumilast] | 75 | 13.9 | 69 | 0.30 ± 0.06 | decreased | increased more at low flow than circuits treated with | significantly inhibited | decreased | decreased | increased significantly more in heparin only | decreased lag time over six hours of circulation less than roflumilast treated circuits | inhibited leukocyte activation | 1.6 | less | less | less | prevents | decreases
